Laboratory results as given in the NIST ThermoML archive (doi:10.1016/j.jct.2014.12.020).

Test: wn = mass fraction of the nth substance listed
Conditions: 100 kPa, Liquid; for viscosity: Concentric cylinders viscometry; for mass density: Vibrating tube method

CCC(=O)[O-].C[N+](C)(C)CCO [cholinium propanoate] + O
Conditions	mass density [kg/m3]	viscosity [mPa·s]
293.15 K, w2 = 0.003	1070.1	4600
293.15 K, w2 = 0.01	1070.9	3316.4
293.15 K, w2 = 0.021	1072.1	2130.4
293.15 K, w2 = 0.025	1072.3	1826.4
293.15 K, w2 = 0.046	1074	980.3
293.15 K, w2 = 0.064	1075.3	607
293.15 K, w2 = 0.1	1076.9	286
293.15 K, w2 = 0.127	1077.5	193.3
293.15 K, w2 = 0.208	1077.7	74.5
293.15 K, w2 = 0.262	1075.4	49.6
298.15 K, w2 = 0.003	1067.4	2918.6
298.15 K, w2 = 0.01	1068.1	2112.2
298.15 K, w2 = 0.021	1069.2	1416.6
298.15 K, w2 = 0.025	1069.5	1227.2
298.15 K, w2 = 0.046	1071.1	681.1
298.15 K, w2 = 0.064	1072.3	432.9
298.15 K, w2 = 0.1	1074	211.8
298.15 K, w2 = 0.127	1074.6	145.4
298.15 K, w2 = 0.208	1074.9	57.9
298.15 K, w2 = 0.262	1072.3	39.1
303.15 K, w2 = 0.003	1064.6	1909.6
303.15 K, w2 = 0.01	1065.3	1410
303.15 K, w2 = 0.021	1066.4	968.2
303.15 K, w2 = 0.025	1066.7	847.5
303.15 K, w2 = 0.046	1068.2	484.8
303.15 K, w2 = 0.064	1069.5	315.7
303.15 K, w2 = 0.1	1071.2	159.9
303.15 K, w2 = 0.127	1071.9	111.4
303.15 K, w2 = 0.208	1072	45.8
303.15 K, w2 = 0.262	1069.4	31.4
308.15 K, w2 = 0.003	1061.9	1285
308.15 K, w2 = 0.01	1062.5	967
308.15 K, w2 = 0.021	1063.6	678.9
308.15 K, w2 = 0.025	1063.8	599.9
308.15 K, w2 = 0.046	1065.4	353
308.15 K, w2 = 0.064	1066.7	235.1
308.15 K, w2 = 0.1	1068.4	123
308.15 K, w2 = 0.127	1069.1	86.8
308.15 K, w2 = 0.208	1069.2	36.7
308.15 K, w2 = 0.262	1066.5	25.5
313.15 K, w2 = 0.003	1059.2	888.1
313.15 K, w2 = 0.01	1059.8	680.2
313.15 K, w2 = 0.021	1060.8	487.3
313.15 K, w2 = 0.025	1061	434.3
313.15 K, w2 = 0.046	1062.6	262.3
313.15 K, w2 = 0.064	1063.9	178.4
313.15 K, w2 = 0.1	1065.7	96.1
313.15 K, w2 = 0.127	1066.4	68.7
313.15 K, w2 = 0.208	1066.3	29.8
313.15 K, w2 = 0.262	1063.6	20.8
318.15 K, w2 = 0.003	1056.4	628.8
318.15 K, w2 = 0.01	1057	489.6
318.15 K, w2 = 0.021	1058.1	357.4
318.15 K, w2 = 0.025	1058.3	321.1
318.15 K, w2 = 0.046	1059.9	198.7
318.15 K, w2 = 0.064	1061.2	137.7
318.15 K, w2 = 0.1	1062.9	76.2
318.15 K, w2 = 0.127	1063.6	55.1
318.15 K, w2 = 0.208	1063.4	24.5
318.15 K, w2 = 0.262	1060.7	17.5
323.15 K, w2 = 0.003	1053.6	455.4
323.15 K, w2 = 0.01	1054.3	360
323.15 K, w2 = 0.021	1055.4	267.4
323.15 K, w2 = 0.025	1055.7	241.9
323.15 K, w2 = 0.046	1057.3	153.1
323.15 K, w2 = 0.064	1058.7	108
323.15 K, w2 = 0.1	1060.2	61.3
323.15 K, w2 = 0.127	1060.8	44.8
323.15 K, w2 = 0.208	1060.6	20.4
323.15 K, w2 = 0.262	1057.8	14.7
328.15 K, w2 = 0.003	1050.9	336.7
328.15 K, w2 = 0.01	1051.6	270
328.15 K, w2 = 0.021	1052.7	203.8
328.15 K, w2 = 0.025	1053	185.5
328.15 K, w2 = 0.046	1054.6	119.9
328.15 K, w2 = 0.064	1056	86
328.15 K, w2 = 0.1	1057.5	50
328.15 K, w2 = 0.127	1058	36.9
328.15 K, w2 = 0.208	1057.8	17.2
328.15 K, w2 = 0.262	1054.9	12.5
333.15 K, w2 = 0.003	1048.2	253.8
333.15 K, w2 = 0.01	1049	206.2
333.15 K, w2 = 0.021	1050.1	158.1
333.15 K, w2 = 0.025	1050.3	144.6
333.15 K, w2 = 0.046	1052.1	95.3
333.15 K, w2 = 0.064	1053.3	69.4
333.15 K, w2 = 0.1	1054.8	41.2
333.15 K, w2 = 0.127	1055.4	30.7
333.15 K, w2 = 0.208	1054.9	14.6
333.15 K, w2 = 0.262	1051.9	10.6
338.15 K, w2 = 0.003	1045.5	194.8
338.15 K, w2 = 0.01	1046.3	160.1
338.15 K, w2 = 0.021	1047.5	124.5
338.15 K, w2 = 0.025	1047.8	114.4
338.15 K, w2 = 0.046	1049.4	76.7
338.15 K, w2 = 0.064	1050.7	56.7
338.15 K, w2 = 0.1	1052.1	34.3
338.15 K, w2 = 0.127	1052.6	25.8
338.15 K, w2 = 0.208	1052	12.5
338.15 K, w2 = 0.262	1048.9	9.3
343.15 K, w2 = 0.003	1042.9	151.9
343.15 K, w2 = 0.01	1043.7	126.2
343.15 K, w2 = 0.021	1044.8	99.3
343.15 K, w2 = 0.025	1045.1	91.8
343.15 K, w2 = 0.046	1046.7	62.5
343.15 K, w2 = 0.064	1047.9	46.8
343.15 K, w2 = 0.1	1049.3	28.8
343.15 K, w2 = 0.127	1049.7	21.9
343.15 K, w2 = 0.208	1049.1	10.8
343.15 K, w2 = 0.262	1045.8	8.1
